{
  "source": "patent US12459918B2",
  "about": "“Isoquinolinone derivatives serving as rock protein kinase inhibitors and use thereof” (GUANGZHOU OCUSUN OPHTHALMIC BIOTECHNOLOGY CO., LTD., priority 2019, dated 2025)",
  "key": {"[1]": {"test_system": "New Zealand rabbits with acute ocular hypertension", "experiment": "Intraocular pressure reduction experiment in New Zealand rabbits with acute ocular hypertension, experiment operation 2", "assay_type": "in vivo", "details": "for Intraocular pressure in the left eye: 4 mg/mL group, left eye (solvent, not modeled); for Intraocular pressure in the right eye: 4 mg/mL in right eye (induced ocular hypertension)", "text": "Experimental Example 3. Intraocular Pressure Reduction Experiment in New Zealand Rabbits with Acute Ocular Hypertension\nAcute ocular hypertension of rabbits were induced by anterior chamber injection of a viscoelastic agent and the intraocular pressure reduction action of compound 60 and compound 63 at different concentrations were explored by eye-drop administration.\nMale New Zealand rabbits, aged 97-127 days, weighted 2.5-3.4 kg, purchased from PizhouDongfang Breeding Co. Ltd.\n50 male New Zealand rabbits were randomly divided into 5 groups according to body weight, with 10 rabbits/per group Animals in 1-5 groups were injected with medical sodium hyaluronate gel in the anterior chamber of right eye in a single dose, 100 μL/eye, to induce ocular hypertension. In 5-15 minutes after modeling, the right eye was respectively dropped with a solvent, K-115 and test samples (compound 63 at different concentrations), the left eye was dropped with a solvent, the volume of the administration was all 50 μL/eye, and intraocular pressure in both eyes of the animals was measured before administration and in 2, 4, 6, 8 and 10 hours after administration, respectively."}, "[2]": {"test_system": "New Zealand rabbits with normal intraocular pressure", "experiment": "Repeated eye-drop administration for 14 days, experiment operation 2: Day 1 intraocular pressure", "assay_type": "in vivo", "details": "Day 1; for Mean intraocular pressure of both eyes: 4 mg/mL in right eye, saline in left; for Change of intraocular pressure: 4 mg/mL, group minus negative control", "text": "Experimental example 4. Experiment on reduction of intraocular pressure and ocular toxicity of New Zealand rabbits with normal intraocular pressure by repeated eye-drop administration for 14 days\nThe intraocular pressure reduction action and the potential ocular toxicity of compound 63 were explored by 14 days of repeated eye-drop administration in rabbits with normal intraocular pressure.\nMale New Zealand rabbits, aged 97-127 days, weighted 2.6-3.5 kg, purchased from PizhouDongfang Breeding Co. Ltd.\n42 male New Zealand rabbits were randomly divided into 7 groups, with 6 rabbits per group. Animals were randomly divided according to body weight Animals in 1-7 groups were eye-dropped with normal saline in the left eye and with solvent/control sample/test sample in the right eye respectively by a volume of 50 μL/eye, once per day for 14 consecutive days, and the day of administration was recorded as Day 1. The intraocular pressure of the animals was measured before Day 1 administration and in 1, 2, 4, 6, 8 and 10 hours after Day 1 administration, respectively (Table 8)."}},
  "data": [
    {"smiles": "C[C@H]1CNCCCN1S(=O)(=O)c1cccc2cncc(F)c12", "note": "[Compound K-115, reference compound]", "values": [
      {"measurement": "Intraocular pressure in the left eye", "setting": "[1]; 2 hours after administration", "result": 6.50, "unit": "mmHg"},
      {"measurement": "Intraocular pressure in the left eye", "setting": "[1]; 4 hours after administration", "result": 8.54, "unit": "mmHg"},
      {"measurement": "Intraocular pressure in the left eye", "setting": "[1]; 6 hours after administration", "result": 11.40, "unit": "mmHg"},
      {"measurement": "Intraocular pressure in the left eye", "setting": "[1]; 8 hours after administration", "result": 13.20, "unit": "mmHg"},
      {"measurement": "Intraocular pressure in the left eye", "setting": "[1]; 10 hours after administration", "result": 13.37, "unit": "mmHg"},
      {"measurement": "Intraocular pressure in the left eye", "setting": "[1]; before administration", "result": 11.80, "unit": "mmHg"},
      {"measurement": "Intraocular pressure in the right eye", "setting": "[1]; 2 hours after administration", "result": 8.20, "unit": "mmHg"},
      {"measurement": "Intraocular pressure in the right eye", "setting": "[1]; 4 hours after administration", "result": 11.27, "unit": "mmHg"},
      {"measurement": "Intraocular pressure in the right eye", "setting": "[1]; 6 hours after administration", "result": 15.07, "unit": "mmHg"},
      {"measurement": "Intraocular pressure in the right eye", "setting": "[1]; 8 hours after administration", "result": 15.57, "unit": "mmHg"},
      {"measurement": "Intraocular pressure in the right eye", "setting": "[1]; 10 hours after administration", "result": 16.47, "unit": "mmHg"},
      {"measurement": "Intraocular pressure in the right eye", "setting": "[1]; before administration", "result": 11.77, "unit": "mmHg"},
      {"measurement": "Mean intraocular pressure of both eyes", "setting": "[2]; 1 hour after administration", "result": 5.50, "unit": "mmHg"},
      {"measurement": "Mean intraocular pressure of both eyes", "setting": "[2]; 2 hours after administration", "result": 7.06, "unit": "mmHg"},
      {"measurement": "Mean intraocular pressure of both eyes", "setting": "[2]; 4 hours after administration", "result": 9.00, "unit": "mmHg"},
      {"measurement": "Mean intraocular pressure of both eyes", "setting": "[2]; 6 hours after administration", "result": 9.17, "unit": "mmHg"},
      {"measurement": "Mean intraocular pressure of both eyes", "setting": "[2]; 8 hours after administration", "result": 10.61, "unit": "mmHg"},
      {"measurement": "Mean intraocular pressure of both eyes", "setting": "[2]; 10 hours after administration", "result": 12.33, "unit": "mmHg"},
      {"measurement": "Mean intraocular pressure of both eyes", "setting": "[2]; before administration", "result": 10.17, "unit": "mmHg"},
      {"measurement": "Change of intraocular pressure", "setting": "[2]; 1 hour after administration", "result": "−3.39", "unit": "mmHg"},
      {"measurement": "Change of intraocular pressure", "setting": "[2]; 2 hours after administration", "result": "−2.50", "unit": "mmHg"},
      {"measurement": "Change of intraocular pressure", "setting": "[2]; 4 hours after administration", "result": "−0.89", "unit": "mmHg"},
      {"measurement": "Change of intraocular pressure", "setting": "[2]; 6 hours after administration", "result": "−1.61", "unit": "mmHg"},
      {"measurement": "Change of intraocular pressure", "setting": "[2]; 8 hours after administration", "result": 0.23, "unit": "mmHg"},
      {"measurement": "Change of intraocular pressure", "setting": "[2]; 10 hours after administration", "result": 0.17, "unit": "mmHg"},
      {"measurement": "Change of intraocular pressure", "setting": "[2]; before administration", "result": 0.83, "unit": "mmHg"}
    ]}
  ]
}
